Results from patent US20260116921A1, “PEPTIDE INHIBITORS OF INTERLEUKIN-23 RECEPTOR AND THEIR USE TO TREAT INFLAMMATORY DISEASES” (priority 2018, published 2026).
Each block holds one molecule with its values, some of them ahead of it. Numbered stars: 1 amine (or outer) side, 2 acyl side, 3 side chain; on linkers, the order of the positions; unused ones are H or OH. Bridge positions count the residues as written; N and C are the ends. Square brackets hold non-standard residues; d marks the D form. Peptide text beside a SMILES is read from it. Trp(7-nPr) = CCCc1cccc2c(C[C@H](N[*:1])C(=O)[*:2])c[nH]c12; Trp(7-Me) = Cc1cccc2c(C[C@H](N)C(=O)O)c[nH]c12; 2Nal = N[C@@H](Cc1ccc2ccccc2c1)C(=O)O; AEF = NCCOc1ccc(C[C@H](N)C(=O)O)cc1; Cit = NC(=O)NCCC[C@H](N)C(=O)O; αMeL = CC(C)C[C@](C)(N)C(=O)O; Pen = CC(C)(S)[C@H](N)C(=O)O; αMeK = C[C@](N)(CCCCN)C(=O)O; Abu = CC[C@H](N)C(=O)O; βAla = NCCC(=O)O

Tests used:
NK cells = assay: NK cell based assay (IL-23/IL-18-induced IFNγ, Quantikine ELISA); conditions: human primary NK cells, IL-23 at EC50 to EC75 + IL-18 10 ng/mL, IFNγ after 20 to 24 hours
Experimental: killer (NK) cells, purified from human peripheral blood of healthy donors by negative selection (Miltenyi Biotech, Cat #130-092-657), were cultured in complete media (RPMI 1640 containing […], L-glutamine and penicillin-streptomycin) in the presence of IL-2 (RnD, Cat #202-IL-010/CF) at 25 ng/mL. After 7 days, cells were centrifuged, and resuspended in complete media at IE6 cells/mL. […] After 20 to 24 hours, IFNγ in the supernatant was quantified using Quantikine ELISA (RnD, Cat #DIF50).

in vitro [1] = conditions: human, 20% fecal homogenate (supernatant), anaerobic, pH 6.8
in vitro [2] = conditions: cynomolgus monkey, 20% fecal homogenate (supernatant), anaerobic, pH 6.8
IL-23R [3] = target: T1, IL-23R (Homo sapiens, UniProt Q5VWK5); assay: DB cells IL23R pSTAT3 cell assay (pStat3 HTRF); type: cell-based; conditions: Table E3; DB cells, IL-23 0.5 nM, 30 minutes at 37° C.; read-out: pStat3 HTRF (IC50)
T1 sequence (Q5VWK5 24-629): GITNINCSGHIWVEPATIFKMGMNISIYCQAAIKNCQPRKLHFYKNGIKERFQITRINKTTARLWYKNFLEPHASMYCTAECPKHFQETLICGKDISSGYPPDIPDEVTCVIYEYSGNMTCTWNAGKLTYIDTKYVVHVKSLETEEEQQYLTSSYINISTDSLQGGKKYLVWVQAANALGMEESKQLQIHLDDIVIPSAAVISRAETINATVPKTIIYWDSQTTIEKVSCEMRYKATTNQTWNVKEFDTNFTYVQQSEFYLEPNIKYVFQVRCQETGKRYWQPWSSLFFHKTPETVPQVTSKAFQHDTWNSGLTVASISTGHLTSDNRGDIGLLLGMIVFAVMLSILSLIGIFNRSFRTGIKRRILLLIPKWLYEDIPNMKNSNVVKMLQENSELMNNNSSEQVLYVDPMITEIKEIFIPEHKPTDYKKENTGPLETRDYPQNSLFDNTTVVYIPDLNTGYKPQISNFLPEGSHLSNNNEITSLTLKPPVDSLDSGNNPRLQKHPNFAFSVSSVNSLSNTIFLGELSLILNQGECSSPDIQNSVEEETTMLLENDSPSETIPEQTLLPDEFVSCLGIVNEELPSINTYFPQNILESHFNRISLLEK
Method in brief: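 DB cells (5×10E5/well, RPMI-1640 + 10% FBS) stimulated with 0.5 nM final IL-23 plus serially diluted test peptides for 30 min at 37 °C, 5% CO2. Phospho-STAT3 (Tyr705) in lysates measured by HTRF using a two-plate protocol.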

in vitro [4] = conditions: both, SD, rat
IL-23R [5] = target: T2, IL-23R (human, UniProt Q5VWK5 24-629); assay: cell-based or functional assay
T2 sequence (looked up): T1 sequence (Q5VWK5 24-629)

IL-23R [6] = target: T2, IL-23R; assay: cell-based or functional assay; remark: listed apart in the source

Molecule: CC(=O)NCCCC[C@@H]1NC(=O)[C@H](Cc2c[nH]c3c(C)cccc23)NC(=O)[C@H]([C@@H](C)O)NC(=O)[C@H](CC(N)=O)NC(=O)[C@@H](NC(C)=O)C(C)(C)SSC(C)(C)[C@@H](C(=O)N[C@@H](Cc2ccc(OCCN)cc2)C(=O)N[C@@H](Cc2ccc3ccccc3c2)C(=O)N[C@@](C)(CCCCN)C(=O)N[C@@H](CCCCNC(C)=O)C(=O)N[C@@H](CC(N)=O)C(=O)N[C@H](CCCCN)C(N)=O)NC1=O [SEQ ID No. 252, Ac-[Pen]-NT-[W(7-Me)]-[Lys(Ac)]-[Pen]-Phe[4-(2-aminoethoxy)]-[2-Nal]-[a-MeLys]-[Lys(Ac)]-N-[(D)Lys]-NH2]
- IC50 (NK cells): < 0.01 µM
- half-life at 20 μM (in vitro [1]): > 24 h
- half-life at 20 μM (in vitro [2]): > 24 h
- IC50 (IL-23R [3]): < 0.001 µM
- half-life at 20 μM (in vitro [4]; plasma (EDTA, pooled)): > 24 h

Molecule: CC(=O)NCCCC[C@H](NC(=O)[C@](C)(CCCCN)NC(=O)[C@H](Cc1ccc2ccccc2c1)NC(=O)[C@H](Cc1ccc(OCCN)cc1)NC(=O)[C@H]1NC(=O)[C@H](CCC(N)=O)NC(=O)[C@H](Cc2c[nH]c3c(C)cccc23)NC(=O)[C@H]([C@@H](C)O)NC(=O)[C@H](CC(N)=O)NC(=O)[C@@H](NC(C)=O)C(C)(C)SSC1(C)C)C(=O)N[C@@H](CC(N)=O)C(=O)NCCC(N)=O [compound 202]
- IC50 (NK cells): < 0.01 µM
- half-life at 20 μM (in vitro [2]): 12 h
- IC50 (IL-23R [3]): 0.001 to 0.01 µM

Molecule: CC(=O)NCCCC[C@H](NC(=O)[C@](C)(CC(C)C)NC(=O)[C@H](Cc1ccc2ccccc2c1)NC(=O)[C@H](Cc1ccc(OCCN)cc1)NC(=O)[C@H]1NC(=O)[C@H](CCC(N)=O)NC(=O)[C@H](Cc2c[nH]c3c(C)cccc23)NC(=O)[C@H]([C@@H](C)O)NC(=O)[C@H](CC(N)=O)NC(=O)[C@@H](NC(C)=O)C(C)(C)SSC1(C)C)C(=O)NCC(=O)NCCC(N)=O [compound 205]
- IC50 (NK cells): 0.011 to 0.1 µM
- half-life at 20 μM (in vitro [1]): > 24 h
- half-life at 20 μM (in vitro [2]): > 24 h
- IC50 (IL-23R [3]): 0.001 to 0.01 µM
- half-life at 20 μM (in vitro [4]; plasma (EDTA)): 1 h

Molecule: CC(=O)NCCCC[C@H](NC(=O)[C@](C)(CC(C)C)NC(=O)[C@H](Cc1ccc2ccccc2c1)NC(=O)[C@H](Cc1ccc(OCCN)cc1)NC(=O)[C@H]1NC(=O)[C@H](CCC(N)=O)NC(=O)[C@H](Cc2c[nH]c3c(C)cccc23)NC(=O)[C@H]([C@@H](C)O)NC(=O)[C@H](CC(N)=O)NC(=O)[C@@H](NC(C)=O)C(C)(C)SSC1(C)C)C(=O)N[C@@H](CCCNC(N)=O)C(=O)NCCC(N)=O [compound 206]
- IC50 (NK cells): 0.011 to 0.1 µM
- half-life at 20 μM (in vitro [1]): 20 h
- half-life at 20 μM (in vitro [2]): > 24 h
- IC50 (IL-23R [3]): 0.01 to 0.1 µM

Molecule: CC(=O)NCCCC[C@H](NC(=O)[C@](C)(CC(C)C)NC(=O)[C@H](Cc1ccc2ccccc2c1)NC(=O)[C@H](Cc1ccc(OCCN)cc1)NC(=O)[C@H]1NC(=O)[C@H](CCC(N)=O)NC(=O)[C@H](Cc2c[nH]c3c(C)cccc23)NC(=O)[C@H]([C@@H](C)O)NC(=O)[C@H](CC(N)=O)NC(=O)[C@@H](NC(C)=O)C(C)(C)SSC1(C)C)C(=O)N(C)CC(=O)NCCC(N)=O [compound 224]
- IC50 (NK cells): 0.101 to 0.5 µM
- half-life at 20 μM (in vitro [1]): > 24 h
- half-life at 20 μM (in vitro [2]): > 24 h
- IC50 (IL-23R [3]): > 0.1 µM

Molecule: CC(=O)NCCCC[C@H](NC(=O)[C@](C)(CC(C)C)NC(=O)[C@H](Cc1ccc2ccccc2c1)NC(=O)[C@H](Cc1ccc(OCCN)cc1)NC(=O)[C@H]1NC(=O)[C@H](CCC(N)=O)NC(=O)[C@H](Cc2c[nH]c3c(C)cccc23)NC(=O)[C@H]([C@@H](C)O)NC(=O)[C@H](CC(N)=O)NC(=O)[C@@H](NC(C)=O)C(C)(C)SSC1(C)C)C(=O)N[C@@](C)(CC(C)C)C(=O)NCCC(N)=O [compound 225]
- IC50 (NK cells): 0.101 to 0.5 µM
- half-life at 20 μM (in vitro [1]): > 24 h
- half-life at 20 μM (in vitro [2]): > 24 h
- IC50 (IL-23R [3]): 0.01 to 0.1 µM

B2: SEQ ID NO: 278 (peptide)
peptide: XNTXQXXXXKNX
modifications: Ac-[Pen]-N-T-[W(7-Me)]-Q-[Pen]-Phe[4-(2-aminoethoxy)]-[2-Nal]-[a-MeOrn]-[Lys(Ac)]-N-[bA]-NH2; Pen-Pen disulfide
- NK Cell Assay (nM) IC50 (IL-23R [5]): < 10 nM
- pStat3 HTRF (nM) IC50 (IL-23R [6]): < 1 nM

Now from value to molecule:

- IC50 (NK cells): < 0.01 µM
- IC50 (IL-23R [3]): < 0.001 µM
Molecule: CC(=O)NCCCC[C@H](NC(=O)[C@](C)(CC(C)C)NC(=O)[C@H](Cc1ccc2ccccc2c1)NC(=O)[C@H](Cc1ccc(OCCN)cc1)NC(=O)[C@H]1NC(=O)[C@H](CCCNC(N)=O)NC(=O)[C@H](Cc2c[nH]c3c(C)cccc23)NC(=O)[C@H]([C@@H](C)O)NC(=O)[C@H](CC(N)=O)NC(=O)[C@@H](NC(C)=O)C(C)(C)SSC1(C)C)C(=O)N[C@@H](CC(N)=O)C(=O)NCCC(N)=O [compound 227] (Ac-[Pen]NT[Trp(7-Me)][Cit][Pen][AEF][2Nal][αMeL]K(Ac)N[βAla]-NH2; disulfide 1-6)

- NK Cell Assay (nM) IC50 (IL-23R [5]): < 10 nM
- pStat3 HTRF (nM) IC50 (IL-23R [6]): < 1 nM
Molecule: Ac-[Pen]NT[Trp(7-nPr)]K(Ac)[Pen][AEF][2Nal][αMeK]K(Ac)N[dL]-NH2 (disulfide 1-6 (inferred)) [SEQ ID NO: 285]

- NK Cell Assay (nM) IC50 (IL-23R [5]): < 10 nM
B1: SEQ ID NO: 282 (peptide)
peptide: XNTXQXXXXENX
modifications: Ac-[Pen]-N-T-[W(7-Me)]-Q-[Pen]-Phe[4-(2-aminoethoxy)]-[2-Nal]-[a-MeLys]-E-N-[bA]-NH2; Pen-Pen disulfide

- NK Cell Assay (nM) IC50 (IL-23R [5]): < 10 nM
- pStat3 HTRF (nM) IC50 (IL-23R [6]): < 1 nM
Molecule: Ac-[Pen]NT[Trp(7-Me)][Cit][Pen][AEF][2Nal][αMeK]K(Ac)N[dY]-NH2 (disulfide 1-6 (inferred)) [SEQ ID NO: 259]

- NK Cell Assay (nM) IC50 (IL-23R [5]): < 10 nM
B3: SEQ ID NO: 271 (peptide)
peptide: XNTXKXXXXKSX
modifications: Ac-[Pen]-N-T-[W(7-Me)]-[Lys(Ac)]-[Pen]-Phe[4-(2-aminoethoxy)]-[2-Nal]-[a-MeLys]-[Lys(Ac)]-S-[bA]-NH2; Pen-Pen disulfide

- NK Cell Assay (nM) IC50 (IL-23R [5]): < 10 nM
Molecule: Ac-[dR][Abu]QT[Trp(7-Me)]K(Ac)C[AEF][2Nal][αMeK]K(Ac)N[dK]-NH2 (thioether 2-7) [SEQ ID NO: 324]
